# Calls of active or inactive are those of the source. No cut-off for these calls is given here.
# Assays:
# [1] = biological target: Sodium channel protein type 1 subunit alpha (Homo sapiens) (UniProt P35498); assay: Modulator activity at human Nav1.1 expressed in human Flp-In-T-REx-293 cells assessed as change in half inactivation potential at 100 uM by whole cell patch clamp electrophysiology assay; assay type: cell-based
# [2] = biological target: Sodium channel protein type 1 subunit alpha (Homo sapiens) (UniProt P35498); assay: Modulator activity at human Nav1.1 expressed in human Flp-In-T-REx-293 cells assessed as half inactivation potential at 100 uM by whole cell patch clamp electrophysiology assay; assay type: cell-based
# [3] = biological target: Sodium channel protein type 1 subunit alpha (Homo sapiens) (UniProt P35498); assay: Modulator activity at human Nav1.1 expressed in human Flp-In-T-REx-293 cells assessed as half activation potential at 100 uM measured at holding potential of -120 mV by whole cell patch clamp electrophysiology assay; assay type: cell-based
# [4] = biological target: Sodium channel protein type 1 subunit alpha (Homo sapiens) (UniProt P35498); assay: Modulator activity at human Nav1.1 expressed in human Flp-In-T-REx-293 cells assessed as change in half activation potential at 100 uM measured at holding potential of -120 mV by whole cell patch clamp electrophysiology assay; assay type: cell-based
# [5] = test system: Mus musculus; assay: Anti-seizure activity against PTZ-induced ICR mouse seizure model assessed as decrease in seizure severity stage at 50 mg/kg, IG incubated for 1 hrs followed by PTZ stimulation and measured <30 mins; assay type: functional, organism-based; conditions: time < 1.5 hrs
# [6] = test system: Mus musculus; assay: Anti-seizure activity against PTZ-induced ICR mouse seizure model assessed as increase in survival rate at 50 mg/kg, IG incubated for 1 hrs followed by PTZ stimulation and measured <30 mins; assay type: functional, organism-based; conditions: time < 1.5 hrs
# [7] = test system: Mus musculus; assay: Anti-seizure activity against ICR mouse […] assessed as decrease in seizure stage at 50 mg/kg, IG incubated for 1 hrs followed by PTZ stimulation; assay type: functional, organism-based
# [8] = test system: Mus musculus; assay: Anti-seizure activity against PTZ-induced ICR mouse seizure model assessed as increase in average latency to stage 6 at 50 mg/kg, IG incubated for 1 hrs followed by PTZ stimulation and measured <30 mins; assay type: functional, organism-based; conditions: time < 1.5 hrs
# [9] = test system: Mus musculus; assay: Anti-seizure activity against PTZ-induced ICR mouse seizure model assessed as increase in average latency to stage 2 at 50 mg/kg, IG incubated for 1 hrs followed by PTZ stimulation and measured <30 mins; assay type: functional, organism-based; conditions: time < 1.5 hrs
# [10] = AUClast in Sprague-Dawley rat plasma at 50 mg/kg, po; assay type: ADME, organism-based; design: dose 50 mg/kg, route po; conditions: in vivo
# [11] = Tmax in Sprague-Dawley rat at 50 mg/kg, po; assay type: ADME, organism-based; conditions: in vivo
# [12] = Half life in Sprague-Dawley rat at 10 mg/kg, iv; assay type: ADME, organism-based; conditions: in vivo
# [13] = AUClast in Sprague-Dawley rat plasma at 10 mg/kg, iv; assay type: ADME, organism-based; design: dose 10 mg/kg, route iv; conditions: in vivo
# [14] = Half life in Sprague-Dawley rat at 50 mg/kg, po; assay type: ADME, organism-based; conditions: in vivo
# [15] = Cmax in Sprague-Dawley rat at 50 mg/kg, po; assay type: ADME, organism-based; design: dose 50 mg/kg, route po; conditions: in vivo
# [16] = Oral bioavailability in Sprague-Dawley rat at 50 mg/kg; assay type: ADME, organism-based; conditions: in vivo
# [17] = Apparent volume of distribution during terminal phase in Sprague-Dawley rat at 50 mg/kg, po; assay type: ADME, organism-based; conditions: in vivo, read-out: Vz/F
# [18] = test system: Mus musculus; assay: Anti-seizure activity against ICR mouse […] assessed as increase in latency duration in stage 3 at 50 mg/kg, IG incubated for 1 hrs followed by PTZ stimulation; assay type: functional, organism-based
# [19] = test system: Mus musculus; assay: Anti-seizure activity against ICR mouse […] assessed as increase in survival rate at 50 mg/kg, IG incubated for 1 hrs followed by PTZ stimulation; assay type: functional, organism-based
# [20] = Apparent clearance during terminal phase in Sprague-Dawley rat at 50 mg/kg, po; assay type: ADME, organism-based; conditions: in vivo
# [21] = Tmax in Sprague-Dawley rat at 10 mg/kg, iv; assay type: ADME, organism-based; conditions: in vivo
# [22] = test system: Mus musculus; assay: Anti-seizure activity against ICR mouse […] assessed as decrease in tonic clonic seizure duration at 50 mg/kg, IG incubated for 1 hrs followed by PTZ stimulation; assay type: functional, organism-based
# [23] = Apparent clearance during terminal phase in Sprague-Dawley rat at 10 mg/kg, iv; assay type: ADME, organism-based; conditions: in vivo
# [24] = Cmax in Sprague-Dawley rat at 10 mg/kg, iv; assay type: ADME, organism-based; design: dose 10 mg/kg, route iv; conditions: in vivo
# [25] = Apparent volume of distribution during terminal phase in Sprague-Dawley rat at 10 mg/kg, iv; assay type: ADME, organism-based; conditions: in vivo
compound,measurement,setting,value
CN(C)/N=N/c1c(C(N)=O)nnn1Cc1ccccc1,delta(V1/2),[1],-3.79 mV
same,V1/2,[2],-64.2 mV
same,V1/2,[3],-43.2 mV
same,delta(V1/2),[4],-1.5 mV
CN(C)/N=N/c1c(C(N)=O)nnn1Cc1ccc(F)cc1F,delta(V1/2),[1],-4.36 mV
same,V1/2,[2],-63.1 mV
same,V1/2,[3],-36.5 mV
same,delta(V1/2),[4],-4.15 mV
CN(C)/N=N/c1c(C(=O)NCc2ccccc2)nnn1Cc1c(F)cccc1F,Activity,[5],Active
same,delta(V1/2),[1],-11.3 mV
same,V1/2,[2],-78.8 mV
same,Activity,[6],Active
same,V1/2,[3],-36.2 mV
same,delta(V1/2),[4],1.95 mV
same,Activity,[7],inactive
same,Activity,[8],Active
same,Activity,[9],Active
CN(C)/N=N/c1c(C(N)=O)nnn1Cc1c(F)cccc1F,AUClast,[10],5460 ng·h/mL
same,Tmax,[11],10.2 min
same,t1/2,[12],11.4 min
same,Activity,[5],Active
same,AUClast,[13],3190 ng·h/mL
same,t1/2,[14],63 min
same,delta(V1/2),[1],-10.1 mV
same,Cmax,[15],4496.74 ng/mL
same,bioavailability,[16],34.3%
same,Vd/F,[17],13.6 L/kg
same,Activity,[18],Active
same,Activity,[19],Active
same,CLz/F,[20],169 mL/min/kg
same,V1/2,[2],-69.8 mV
same,Tmax,[21],10.2 min
same,Activity,[6],Active
same,V1/2,[3],-46.1 mV
same,Activity,[22],Active
same,delta(V1/2),[4],-1.81 mV
same,CLz/F,[23],54.2 mL/min/kg
same,Activity,[7],Active
same,Cmax,[24],5203.99 ng/mL
same,Activity,[8],Active
same,Activity,[9],Active
same,Vz/F,[25],0.93 L/kg
CN(C)/N=N/c1c(C(N)=O)nnn1Cc1ccccc1Cl,delta(V1/2),[1],-3.13 mV
same,V1/2,[2],-62.9 mV
same,V1/2,[3],-42.7 mV
same,delta(V1/2),[4],-1.7 mV
Cc1ccc(Cn2nnc(C(N)=O)c2/N=N/N(C)C)cc1,delta(V1/2),[1],-3.93 mV
same,V1/2,[2],-66.2 mV
same,V1/2,[3],-45.4 mV
same,delta(V1/2),[4],-1.05 mV
CNC(=O)c1nnn(Cc2c(F)cccc2F)c1/N=N/N(C)C,delta(V1/2),[1],-6.54 mV
same,V1/2,[2],-69.6 mV
same,V1/2,[3],-39.5 mV
same,delta(V1/2),[4],-4.56 mV
CN(C)/N=N/c1c(C(N)=O)nnn1CCc1c(F)cccc1F,delta(V1/2),[1],-0.74 mV
same,V1/2,[2],-61.5 mV
same,V1/2,[3],-31.9 mV
same,delta(V1/2),[4],-2.65 mV
CN(C)/N=N/c1c(C(N)=O)nnn1Cc1ccc(F)cc1,delta(V1/2),[1],-4 mV
same,V1/2,[2],-62 mV
same,V1/2,[3],-39 mV
same,delta(V1/2),[4],-0.99 mV
CN(C)/N=N/c1c(C(N)=O)nnn1Cc1ccccc1F,delta(V1/2),[1],-4.73 mV
same,V1/2,[2],-66.6 mV
same,V1/2,[3],-30.9 mV
same,delta(V1/2),[4],-3.11 mV
CN(C)/N=N/c1c(C(=O)NC2CC2)nnn1Cc1c(F)cccc1F,delta(V1/2),[1],-3.87 mV
same,V1/2,[2],-64.2 mV
same,V1/2,[3],-32.4 mV
same,delta(V1/2),[4],-2.85 mV
COC(=O)CCCNC(=O)c1nnn(Cc2c(F)cccc2F)c1/N=N/N(C)C,delta(V1/2),[1],-4.72 mV
same,V1/2,[2],-71.3 mV
same,V1/2,[3],-35.7 mV
same,delta(V1/2),[4],-1.56 mV
CN(C)/N=N/c1c(C(N)=O)nnn1-c1c(F)cccc1F,delta(V1/2),[1],-4.24 mV
same,V1/2,[2],-64.3 mV
same,V1/2,[3],-35.6 mV
same,delta(V1/2),[4],-1.09 mV
NC(=O)c1cn(Cc2c(F)cccc2F)nn1,delta(V1/2),[1],-7.01 mV
same,V1/2,[2],-66.7 mV
same,V1/2,[3],-41.3 mV
same,delta(V1/2),[4],-7.39 mV
CN(C)/N=N/c1c(C(=O)Nc2ccccc2)nnn1Cc1c(F)cccc1F,delta(V1/2),[1],-5.55 mV
same,V1/2,[2],-73 mV
same,V1/2,[3],-36.5 mV
same,delta(V1/2),[4],-1.64 mV

# Reference: ChEMBL document CHEMBL5223104, “Discovery of triazenyl triazoles as Nav1.1 channel blockers for treatment of epilepsy” (Bioorg Med Chem Lett, 2022)
